{
  "source": "patent US8349844B2",
  "about": "“Substituted pyrazolo [1,5-A] pyrimidines as metabotropic glutamate antagonists” (Hoffmann-La Roche Inc., priority 2005, dated 2013)",
  "data": [
    {"smiles": "Nc1ccc(-c2noc(-c3cnc4ccc(-c5ccc(C(F)(F)F)cc5)cn34)n2)cn1", "note": "[Example 56, 5-{5-[6-(4-Trifluoromethyl-phenyl)-imidazo[1,2-a]pyridin-3-yl]-[1,2,4]oxadiazol-3-yl}-pyridin-2-ylamine]", "values": [
      {"measurement": "melting point", "result": 258, "unit": "°C"}
    ]},
    {"smiles": "NS(=O)(=O)c1ccc(-c2noc(-c3cnn4c(C(F)F)cc(-c5ccc(Cl)cc5)nc34)n2)s1", "note": "[Example 29, 5-{5-[5-(4-Chloro-phenyl)-7-difluoromethyl-pyrazolo[1,5-a]pyrimidin-3-yl]-[1,2,4]oxadiazol-3-yl}-thiophene-2-sulfonic acid amide]", "values": [
      {"measurement": "melting point", "result": 259, "unit": "°C"}
    ]},
    {"smiles": "Nc1ccc(-c2noc(-c3cnn4c(C(F)(F)F)cc(-c5ccc(C(F)(F)F)c(OCC(F)(F)F)c5)nc34)n2)cn1", "note": "[Example 70, 5-(5-{5-[3-(2,2,2-Trifluoro-ethoxy)-4-trifluoromethyl-phenyl]-7-trifluoromethyl-pyrazolo[1,5-a]pyrimidin-3-yl}-[1,2,4]oxadiazol-3-yl)-pyridin-2-ylamine]", "values": [
      {"measurement": "melting point", "result": 284, "unit": "°C"}
    ]},
    {"smiles": "Nc1ccc(-c2noc(-c3cnn4c(C(F)F)cc(-c5ccc(C(F)(F)F)cc5)nc34)n2)cn1", "note": "[Example 36, 5-{5-[7-Difluoromethyl-5-(4-trifluoromethyl-phenyl)-pyrazolo[1,5-a]pyrimidin-3-yl]-[1,2,4]oxadiazol-3-yl}-pyridin-2-ylamine]", "values": [
      {"measurement": "melting point", "result": 242, "unit": "°C"}
    ]},
    {"smiles": "NS(=O)(=O)c1ccc(-c2noc(-c3cnn4c(C(F)(F)F)cc(-c5ccc(C(F)(F)F)c(OCC(F)(F)F)c5)nc34)n2)s1", "note": "[Example 23, 5-(5-{5-[3-(2,2,2-Trifluoro-ethoxy)-4-trifluoromethyl-phenyl]-7-trifluoromethyl-pyrazolo[1,5-a]pyrimidin-3-yl}-[1,2,4]oxadiazol-3-yl)-thiophene-2-sulfonic acid amide]", "values": [
      {"measurement": "melting point", "result": 255, "unit": "°C"}
    ]},
    {"smiles": "NS(=O)(=O)c1ccc(-c2noc(-c3cnc4ccc(-c5ccc(C(F)(F)F)cc5)cn34)n2)cc1", "note": "[Example 50, 4-{5-[6-(4-Trifluoromethyl-phenyl)-imidazo[1,2-a]pyridin-3-yl]-[1,2,4]oxadiazol-3-yl}-benzenesulfonamide]", "values": [
      {"measurement": "melting point", "result": 288, "unit": "°C"}
    ]},
    {"smiles": "NS(=O)(=O)c1cccc(-c2noc(-c3cnn4c(C(F)(F)F)cc(-c5ccc(C(F)(F)F)c(OCC(F)(F)F)c5)nc34)n2)c1", "note": "[Example 16, 3-(5-{5-[3-(2,2,2-Trifluoro-ethoxy)-4-trifluoromethyl-phenyl]-7-trifluoromethyl-pyrazolo[1,5-a]pyrimidin-3-yl}-[1,2,4]oxadiazol-3-yl)-benzenesulfonamide]", "values": [
      {"measurement": "melting point", "result": 250, "unit": "°C"}
    ]}
  ]
}
